Columns and labels:
male mice of ddY line [1] = assay type: in vivo; conditions: 50 mg/kg, i.p., 60 minutes before KCN (3.0 mg/kg) tail intravenous injection
red blood cells = experiment: Inhibition of thermal hemolysis of red blood cells; assay type: cell-based, donryu rats; conditions: Rattus norvegicus, Erythrocyte, 20 min, 53°C for 20 minutes, read-out: Hemolysis Inhibition Ratio (%) against Control
[2] = tested on: platelet rich plasma (PRP); experiment: Platelet aggregation in platelet rich plasma after oral administration; assay type: in vivo, male rat; conditions: 30 mg/kg, p.o., blood 90 minutes after administration
Outline: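 Male rats fasted 18–24 h were dosed orally and bled 90 min later into citrate (1:9). PRP was adjusted with PPP to 3×10⁵ ± 2×10⁴ platelets/µl and warmed 3 min at 37°C. ADP (1×10⁻⁵ M solution) or collagen (1×10⁻⁵ g/ml solution) was added, and aggregation was read as transmittance at 940 nm.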

male rats of SD line = experiment: High cholesterol feed: blood viscosity, serum total cholesterol, triglyceride, GOT; assay type: in vivo; conditions: 100 mg/kg/day, p.o., 4 days
[3] = tested on: rats of diabetes mellitus; experiment: Blood sugar level in streptozotocin-induced diabetes mellitus; assay type: in vivo, male rats of Wistar line; conditions: 50 mg/kg, i.o.; administered for 1 week beginning 1 week after streptozotocin (40 mg/kg); serum
Outline: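 Male Wistar rats, 8 weeks old (5 per group), made diabetic with streptozotocin 40 mg/kg i.v.; from 1 week later, test drug given orally for 1 week, then 24 h fast. Serum glucose measured in vena cava blood taken under Nembutal anaesthesia.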

male mice of ddY line [4] = experiment: Blood oxygen and carbon dioxide partial pressure; assay type: in vivo; conditions: 20 mg/kg, i.p.; blood from abdominal aorta 60 minutes after administration
Outline: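 4-week-old male ddY mice (n=10/group) fasted 24 h were dosed with compound. At 60 min, abdominal aortic blood was drawn under Nembutal anesthesia (50 mg/kg i.p.), and PO₂ and PCO₂ were measured immediately with a blood gas analyzer.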

male rats of SHR line = experiment: Blood pressure in SHR rats; assay type: in vivo; conditions: 10 mg/kg, p.o., 2 weeks
Procedure: In this experiment, 12-week-old male rats of SHR line (5 to 6 individuals per one group) were used after rearing them for 1 week with normal feed. Oral administration of each test drug has been carried out for 2 weeks and then blood pressure (mmHg) was measured using a small animal hemomanometer (UR-1000).

male SD rats = experiment: Thrombus formation in abdominal vena cava; assay type: in vivo; conditions: 30 mg/kg, p.o.; dry weight of thrombus
Outline: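 Anaesthetised male SD rats (130–210 g) had the infrarenal vena cava clipped 5 min and reflowed 5 min, then ligation just below the renal vein; thrombus was removed 2 h later, dried (80 °C, ≥12 h) and weighed. Oral dosing was 90 min before clipping, or for 7 days in 6-week-old rats, induced day 8.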

## C[C@H](CC[C@H](O)[C@H](C)CO)[C@H]1CC[C@H]2[C@@H]3[C@H](O)C[C@@H]4C[C@H](O)CC[C@]4(C)[C@H]3C[C@H](O)[C@]12C [Example 10, (24S)-(25R) 3α,7α,12α,24,26-pentahydroxy-5β-cholestane]
Male mice of ddY line [1]
  Lethality (%): 80%
Male mice of ddY line [1]; time to respiratory arrest
  Survival Time ±S.E.: 111.1 ± 9.11 s
Red blood cells; 0.01 mM
  inhibition at 10 µM: 24%
Red blood cells; 0.05 mM
  inhibition at 50 µM: 21%
Red blood cells; 0.1 mM
  inhibition at 100 µM: 31%
Red blood cells; 0.2 mM
  inhibition at 200 µM: 44%
Red blood cells; 0.5 mM
  inhibition at 500 µM: 58%
[2]; ADP (1×10⁻⁵ M)
  Platelet Aggregation Ratio ±S.E.: 42.2 ± 2.33%
[2]; Collagen (1×10⁻⁵ g/ml)
  Platelet Aggregation Ratio ±S.E.: 48.3 ± 1.65%
Male rats of SD line
  GOT ±S.E.: 145 ± 7 IU/ℓ
  Total Cholesterol ±S.E.: 465 ± 59 mg/dL
  Triglyceride ±S.E.: 99 ± 29 mg/dL
[3]
  Blood Sugar Level ± S.E.: 133 ± 3.8 mg/dL
Male mice of ddY line [4]
  Carbon Dioxide Partial Pressure: 42.6 mmHg
  Oxygen Partial Pressure: 87.5 mmHg
Male rats of SHR line
  Blood Pressure ±S.E. Average: 155 ± 9.5 mmHg
  Blood Pressure ±S.E. Maximum: 191 ± 7.2 mmHg
Male SD rats
  Antithrombotic Effect: Thrombus weight ±S.E.: 13.8 ± 2.85 mg

From patent publication EP0489933A1, “BILE ALCOHOL AND DRUG CONTAINING THE SAME AS ACTIVE INGREDIENT” (TSUMURA CO., LTD., priority 1990, dated 1992)
